Values quoted from earlier work, collected in publication PMC9898036, “VIP152 is a selective CDK9 inhibitor with pre-clinical in vitro and in vivo efficacy in chronic lymphocytic leukemia” (Leukemia, 2022).

Test system: CLL patients
Conditions: cited from earlier work

CCc1cnn2c(NCc3ccc[n+]([O-])c3)cc(N3CCCC[C@H]3CCO)nc12 [dinaciclib]
patients having a partial response: 64%
